Values joined by “and” are separate entries in the source; they are usually repeats but may differ in a detail not shown here. Equal values may be shown once.
Columns and labels:
[1] = molecular target: T1, bacterial NAD synthetase enzyme (Bacillus subtilis, UniProt P08164); test: biochemical; type: biochemical
T1 sequence (P08164 2-272 limits assumed): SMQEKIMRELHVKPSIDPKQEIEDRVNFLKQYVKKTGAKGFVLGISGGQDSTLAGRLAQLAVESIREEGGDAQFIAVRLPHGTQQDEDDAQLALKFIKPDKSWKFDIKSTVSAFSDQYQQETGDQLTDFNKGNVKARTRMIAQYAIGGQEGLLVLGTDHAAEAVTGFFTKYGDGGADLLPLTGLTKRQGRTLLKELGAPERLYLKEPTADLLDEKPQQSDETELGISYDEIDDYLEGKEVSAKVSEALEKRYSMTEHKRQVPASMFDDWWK

[2] = test system: Staphylococcus epidermitis; test: Bacterial growth inhibition screen in LB media (absorbance 595 nm), percent inhibition; settings: S. epidermitis
[3] = compound at 0.2 mM (Table 312A)

Structure (SMILES)	% Inhibition [1, 3]	% Inhibition ([2]; concentration screened 10 uM)	% Inhibition ([2]; concentration screened 100 uM)	% Inhibition ([1]; compound at 0.1 mM (Table 314))
Fc1cc(F)c2[nH]c(CCC[n+]3cccc4ccccc43)cc2c1 [Compound 408]	7.04%	1.88%		
c1ccc(-c2ccc3[nH]c(CCC[n+]4cccc5ccccc54)cc3c2)cc1 [Compound 432]	13.21%	8.91%		
C[n+]1cccc(C(=O)OCCCCCCn2ccc3cc([N+](=O)[O-])ccc32)c1 [Compound 865]	46.43%	50.42% and 48.55%	94.40%	
O=C(c1ccccc1)c1ccc2[nH]c(CCCCC[n+]3ccccc3)cc2c1 [Compound 356]	1.95%		19.29%	
CC(C)c1ccc2[nH]c(CCCCCC[n+]3ccccc3)cc2c1 [Compound 321]			100.00%	37.25%
O=[N+]([O-])c1cc([N+](=O)[O-])c2[nH]c(CCC[n+]3ccccc3)cc2c1 [Compound 306]	33.93%	4.32%		
CCCCc1ccc2[nH]c(CCCCC[n+]3ccc4ccccc4c3)cc2c1 [Compound 530]	20.52%		27.36%	
c1ccc(Oc2ccc3[nH]c(CCCCCC[n+]4ccccc4)cc3c2)cc1 [Compound 351]	65.08%		99.57%	
CC(C)c1ccc2[nH]c(CCCCOC(=O)c3ccccc3-c3ccccc3)cc2c1 [Compound 630]	10.72%		13.69%	
CCCCc1ccc2[nH]c(CCCCCC[n+]3cccc4ccccc43)cc2c1 [Compound 423]	12.09%	16.85%		
Cc1ccc2[nH]c(CCCCCCC[n+]3cccc4ccccc43)cc2c1 [Compound 406]	10.96%	6.41%		
COC(=O)c1ccc2[nH]c(CCCCC[n+]3cccc4ccccc43)cc2c1 [Compound 488]	17.65%	2.72%		
COc1ccc2[nH]c(CCCCC[n+]3cccc4ccccc43)cc2c1 [Compound 482]	17.07%	4.39%		
COC(=O)c1ccc[n+](CCCCn2ccc3cc([N+](=O)[O-])ccc32)c1 [Compound 9]	28.02%	31.80%		
O=[N+]([O-])c1ccc2[nH]c(CCCCC[n+]3cccc4ccccc43)cc2c1 [Compound 440]	12.69%	8.77%		
O=[N+]([O-])c1ccc2[nH]c(CCC[n+]3cccc4ccccc43)cc2c1 [Compound 438]	9.45%	5.29%		
CC(C)c1ccc2[nH]c(CCCCCCCC[n+]3cccc4ccccc43)cc2c1 [Compound 431]	10.77%	22.28%		
c1ccc(Oc2ccc3[nH]c(CCCCC[n+]4cccc5ccccc54)cc3c2)cc1 [Compound 458]	15.72%	22.77%		
Fc1ccc2[nH]c(CCCCC[n+]3ccccc3)cc2c1 [Compound 344]	4.58%	8.08%		
COc1ccc2[nH]c(CCCC[n+]3ccccc3)cc2c1 [Compound 373]	14.13%	1.53%		7.72%
Cc1ccc2[nH]c(CCCC[n+]3cccc4ccccc43)cc2c1 [Compound 403]	5.07%	4.87%		
c1ccc2c[n+](CCCCCCCCc3cc4ccccc4[nH]3)ccc2c1 [Compound 503]	37.04%	7.82%		
c1ccc(C(c2ccccc2)(c2ccccc2)c2ccc3[nH]c(CCC[n+]4cccc5ccccc54)cc3c2)cc1 [Compound 444]		5.85%		8.55%
COC(=O)c1ccc2[nH]c(CCCCCCCC[n+]3cccc4ccccc43)cc2c1 [Compound 491]	8.24%	11.14%		
COc1ccc2c(ccn2CCCCCCOC(=O)Cc2ccc([N+](C)(C)C)cc2)c1 [Compound 742]	28.20%	2.13%		

From patent US6727237B2, “Inhibitors of bacterial NAD synthetase” (priority 1998, dated 2004)
